Laboratory results reported in patent publication US9233171B2, “Method of treatment of tumors that are resistant to EGFR antibody therapies by EGFR antibody cytotoxic agent conjugate” (ImmunoGen, Inc., priority 2011, dated 2016).
Read-outs that look alike come from different tables or passages of the source.

Experiments:
H2228 cells [1] = test: cytotoxic activity, H2228; assay type: cell-based; conditions: Homo sapiens, NCI-H2228
Method: (§1) The cytotoxic assay was performed as follows.
EML4-ALK gene translocation leads to a constitutive activation of ALK kinase and has been identified as a driver mutation in ˜5% of NSCLC adenocarcinoma (reviewed in Castro-Carpeno J. et al., Clin Transl Oncol. 13:774-779 (2011)). […] Unfortunately, ˜40% of EML4-ALK+ tumors are resistant to crizotinib. Additionally, tumors that are sensitive to crizotinib can rapidly develop resistance to the drug (Castro-Carpeno J. et al., Clin Transl Oncol. 13:774-779 (2011)).

H226 cell line [2] = conditions: H226, Yauch et al. 2005; cited from earlier work
H2228 cells [3] = conditions: H2228, Koivunen et al. 2008; cited from earlier work
[4] = system: Parental HCC827 (Aichi) cells; test: in vitro cytotoxicity assay, parental HCC827 (Aichi); assay type: cell-based
Method: as §1
(§2) The HCC827 ER cell line contains high MET gene copy number and the HCC827 EPR cell line carries T790M EGFR mutation (Suda K. et al. Clin Cancer Res 16: 5489 (2010)). These cell lines reflect the two major mechanisms of resistance against EGFR tyrosine kinase inhibitors (Sequist L. et al. Sci Transl Med 3: 75ra26 (2011)).

[5] = system: HCC827 parental cell line; test: Western blot after 16 hour erlotinib treatment, HCC827 parental; assay type: cell-based; conditions: erlotinib 16 hours
HCC827-ER-E4 cell line [6] = test: Western blot after 16 hour erlotinib treatment, HCC827-ER-E4; assay type: cell-based; conditions: HCC827-ER-E4, erlotinib 16 hours
HCC827-ER cell line [7] = test: in vitro cytotoxicity assay, HCC827-ER
HCC827-ER-E4 cell line [8] = test: in vitro cytotoxicity assay, HCC827-ER-E4
[9] = target: EGFR on parental HCC827 (Aichi) NSCLC cells (exon 19 deletion EGFR mutation) (UniProt P00533 25-1210); test: cell-based or functional assay
NCI-H1975 cell line = test: in vitro cytotoxic assay (WST-8), NCI-H1975; assay type: cell-based
Method: NCI-H1975 cell line is a NSCLC adenocarcinoma cell line that carries both sensitizing (L858R) and resistant (T790M) EGFR mutations (Cosmic database, Wellcome Trust Sanger Institute), thus it closely mimics the EGFR kinase inhibitor resistant tumors found in the clinical setting.
as §1

H226 cell line [10] = test: in vitro cytotoxic assay, H226; assay type: cell-based
Method: as §1
NSCLC cell lines with mesenchymal histology are generally more resistant to gefitinib than those with epithelial histology (Yauch R L. et al. Clin Cancer Res 11: 8686 (2005)). […] H226 cell line is a squamous cell carcinoma with mesenchymal histology.

Detroit 562 = test: in vitro cytotoxicity assay, Detroit 562; assay type: cell-based; conditions: Detroit562
HCC827 ER (Aichi) cells = test: in vitro cytotoxicity assay, HCC827 ER (Aichi); assay type: cell-based
Method: as §1, §2

HCC827 EPR (Aichi) cells = test: in vitro cytotoxicity assay, HCC827 EPR (Aichi); assay type: cell-based
Method: as §1, §2

HCC827-ER cell line [11] = system: HCC827-ER cell line
HCC827-ER-E4 cell line [12] = system: HCC827-ER-E4 cell line
HCC827 cell line = test: in vitro cytotoxic assay, HCC827 in absence or presence of HGF

Molecule: C[C@@H](Oc1cc(-c2cnn(C3CCNCC3)c2)cnc1N)c1c(Cl)ccc(F)c1Cl [crizotinib]
- EC50 (H2228 cells [1]; H2228, EML4-ALK translocation, read-out: EC50): 3.82 µM

Molecule: COc1cc2ncnc(Nc3ccc(F)c(Cl)c3)c2cc1OCCCN1CCOCC1 [gefitinib]
- resistance of cell line (H226 cell line [2]): resistant

Molecule: COc1cc(N2CCC(N3CCN(C)CC3)CC2)ccc1Nc1ncc(Cl)c(Nc2ccccc2S(=O)(=O)C(C)C)n1 [TAE684]
- resistance of cell line (H2228 cells [3]): resistant

Molecule: C#Cc1cccc(Nc2ncnc3cc(OCCOC)c(OCCOC)cc23)c1 [erlotinib]
- sensitivity [4]: highly sensitive
- EC50 (H2228 cells [1]): 26.1 µM
- AKT level [5]: reduced
- AKT phosphorylation [5]: inhibited
- EGFR phosphorylation [5]: completely inhibited
- ERK1/2 phosphorylation [5]: inhibited
- AKT level (HCC827-ER-E4 cell line [6]): not changed
- EGFR phosphorylation (HCC827-ER-E4 cell line [6]): completely inhibited
- ERK1/2 phosphorylation (HCC827-ER-E4 cell line [6]): less impact
- phospho AKT (pAKT) level (HCC827-ER-E4 cell line [6]): little change
- cytotoxic effect (HCC827-ER cell line [7]): highly resistant
- cytotoxic effect (HCC827-ER-E4 cell line [8]): maintained erlotinib resistance

B1: huEGFR-7R antibody (antibody, V domains shown)
VH: QVQLVQSGAEVAKPGASVKLSCKASGYTFTSYWMQWVKQRPGQGLECIGTIYPGDGDTTYTQKFQGKATLTADKSSSTAYMQLSSLRSEDSAVYYCARYDAPGYAMDYWGQGTLVTVSS
VL: DIQMTQSPSSLSASVGDRVTITCRASQDINNYLAWYQHKPGKGPKLLIHYTSTLHPGIPSRFSGSGSGRDYSFSISSLEPEDIATYYCLQYDNLLYTFGQGTKLEIKR
- EC50, in vitro cytotoxicity (WST-8 cell viability) on parental HCC827 (Aichi) cells [9]: 426 pM
- cytotoxic effect (NCI-H1975 cell line): did not have any effect
- effect on tumor cell growth (H226 cell line [10]): neither the huEGFR-7R antibody nor cetuximab had effect
- effect on tumor cell growth (Detroit 562): had no effect
- sensitivity [4]: highly sensitive
- sensitivity / resistance (HCC827 ER (Aichi) cells): highly resistant
- sensitivity / resistance (HCC827 EPR (Aichi) cells): highly resistant
- cytotoxic effect (HCC827-ER cell line [11]): little effect
- cytotoxic effect (HCC827-ER-E4 cell line [12]): little effect
- cell growth inhibition (HCC827 cell line; HCC827 + 50 ng/mL HGF): further reduced
- cell growth inhibition (HCC827 cell line; HCC827, absence of HGF): marginal activities
